This note sets out measurements from PubChem BioAssay AID588524 (Sanford-Burnham Center for Chemical Genomics, 2011).

Sequence of Apoptotic protease-activating factor 1 (Homo sapiens) (O14727 whole entry, looked up): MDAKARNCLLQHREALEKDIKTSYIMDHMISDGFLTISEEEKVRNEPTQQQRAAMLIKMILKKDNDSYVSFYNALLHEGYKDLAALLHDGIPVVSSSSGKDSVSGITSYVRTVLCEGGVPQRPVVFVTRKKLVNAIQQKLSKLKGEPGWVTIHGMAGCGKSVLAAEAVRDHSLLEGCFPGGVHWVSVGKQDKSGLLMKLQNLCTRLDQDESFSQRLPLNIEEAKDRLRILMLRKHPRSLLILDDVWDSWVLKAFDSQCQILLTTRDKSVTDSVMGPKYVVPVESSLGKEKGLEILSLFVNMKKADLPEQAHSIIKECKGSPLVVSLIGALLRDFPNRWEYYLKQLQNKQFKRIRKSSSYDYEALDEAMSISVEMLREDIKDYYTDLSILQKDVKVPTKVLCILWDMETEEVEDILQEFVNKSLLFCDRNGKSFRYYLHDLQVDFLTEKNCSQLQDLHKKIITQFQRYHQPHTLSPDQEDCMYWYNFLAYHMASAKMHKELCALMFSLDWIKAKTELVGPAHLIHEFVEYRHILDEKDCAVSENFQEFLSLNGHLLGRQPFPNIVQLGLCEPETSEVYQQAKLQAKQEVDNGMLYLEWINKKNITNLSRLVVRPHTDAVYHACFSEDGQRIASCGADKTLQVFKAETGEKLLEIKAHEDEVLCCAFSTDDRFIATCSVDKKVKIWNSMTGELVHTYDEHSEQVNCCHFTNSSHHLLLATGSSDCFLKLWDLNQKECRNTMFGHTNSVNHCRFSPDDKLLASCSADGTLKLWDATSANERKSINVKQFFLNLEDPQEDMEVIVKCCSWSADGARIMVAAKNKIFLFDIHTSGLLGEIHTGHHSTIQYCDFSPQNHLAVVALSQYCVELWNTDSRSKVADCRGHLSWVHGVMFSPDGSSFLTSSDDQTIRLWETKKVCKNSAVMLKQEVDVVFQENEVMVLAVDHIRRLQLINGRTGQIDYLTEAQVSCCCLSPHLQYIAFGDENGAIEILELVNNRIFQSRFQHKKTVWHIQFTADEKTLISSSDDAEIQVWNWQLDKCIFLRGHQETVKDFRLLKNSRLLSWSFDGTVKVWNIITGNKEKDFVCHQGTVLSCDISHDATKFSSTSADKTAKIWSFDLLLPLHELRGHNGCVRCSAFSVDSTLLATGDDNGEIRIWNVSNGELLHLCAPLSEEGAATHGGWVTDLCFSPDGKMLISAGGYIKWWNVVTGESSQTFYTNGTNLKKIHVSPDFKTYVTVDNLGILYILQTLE

The test concerns the target Apoptotic protease-activating factor 1 (Homo sapiens) (UniProt O14727). Nature of the test: Apaf-1 assay inhibition concentration curves – fluorescence, uHTS hits, dose response (AID 588524). Particulars: Apaf-1 apoptosome assay, fluorescence read-out.
The term IC50 denotes the concentration that inhibits the measured activity by half. For `CNc1ccc2nc3ccccc3[n+](C)c2c1`, the IC50 is 11.5 µM.

As for `C#CCOCCOCCOCCNc1nc(N2CCN(C(=O)CCCCCCCCCCNC(=O)Cn3cc(CCCCCN)nn3)CC2)nc(N2CCN(C(=O)CCCCCCCCCCNC(=O)Cn3cc(CCCCCN)nn3)CC2)n1`, the IC50 was 34.9 µM.

For the molecule `C#CCOCCOCCOCCNc1nc(N2CCN(C(=O)CCCCCCCCCCNC(=O)Cn3cc(CCCCCN)nn3)CC2)nc(N2CCN(C(=O)CCCCCCCCCCNC(=O)[C@H]([C@@H](C)CC)n3cc(CCCCN=C(N)N)nn3)CC2)n1`, the IC50 was 12.9 µM.

As to `C#CCOCCOCCOCCNc1nc(N2CCN(C(=O)CCCCCCCCCCNC(=O)[C@H](CCCCN)n3cc(CCO)nn3)CC2)nc(N2CCN(C(=O)CCCCCCCCCCNC(=O)[C@H](CCCCN)n3cc(CCO)nn3)CC2)n1`, the half-inhibitory concentration (IC50) is 27.1 µM.

`CCCCCCCCCCCCCCCC[n+]1ccc(/C=N/O)cc1`: the IC50 was 29.3 µM.

In the case of `C#CCOCCOCCOCCNc1nc(N2CCN(C(=O)CCCCCCCCCCNC(=O)[C@@H](CCSC)n3cc(CCO)nn3)CC2)nc(N2CCN(C(=O)CCCCCCCCCCNC(=O)[C@H](CO)n3cc(CCCCCN)nn3)CC2)n1`, the IC50 was 40 µM.

Regarding `C[n+]1c(-c2ccccc2)c2cc(N)ccc2c2ccc(N)cc21`, the concentration for half-maximal inhibition (IC50) is 24.5 µM.

`C#CCOCCOCCOCCNc1nc(N2CCN(C(=O)CCCCCCCCCCNC(=O)[C@H](CO)n3cc(CCCSC)nn3)CC2)nc(N2CCN(C(=O)CCCCCCCCCCNC(=O)[C@H](CCCCN)n3cc(CCO)nn3)CC2)n1`: the IC50 is 36.3 µM.

Take `C#CCOCCOCCOCCNc1nc(N2CCN(C(=O)CCCCCCCCCCNC(=O)Cn3cc(CCCCCN)nn3)CC2)nc(N2CCN(C(=O)CCCCCCCCCCNC(=O)[C@H]([C@@H](C)CC)n3cc(CCCCCN)nn3)CC2)n1`: the half-inhibitory concentration (IC50) was 24.3 µM.

Regarding `C#CCOCCOCCOCCNc1nc(N2CCN(C(=O)CCCCCCCCCCNC(=O)[C@H]([C@@H](C)CC)n3cc(CCCCN=C(N)N)nn3)CC2)nc(N2CCN(C(=O)CCCCCCCCCCNC(=O)[C@H](CCCCN)n3cc(C)nn3)CC2)n1`, the IC50 is 21.4 µM.

For the molecule `C#CCOCCOCCOCCNc1nc(N2CCN(C(=O)CCCCCCCCCCNC(=O)Cn3cc(CCCCCN)nn3)CC2)nc(N2CCN(C(=O)CCCCCCCCCCNC(=O)[C@H](CO)n3cc(CCCSC)nn3)CC2)n1`, the IC50 was 24.6 µM.

For the molecule `C#CCOCCOCCOCCNc1nc(N2CCN(C(=O)CCCCCCCCCCNC(=O)[C@H](CCCCN)n3cc(C)nn3)CC2)nc(N2CCN(C(=O)CCCCCCCCCCNC(=O)[C@H](CCCN=C(N)N)n3cc(C[C@@H](C)CC)nn3)CC2)n1`, the IC50 is 15.3 µM.
